Measurements published in patent publication US20250057994A1, “LABELED COMPOUNDS AND CALCIUM SENSING RECEPTOR LIGANDS FOR IMAGING AND USES THEREOF” (The University of North Carolina at Chapel Hill, priority 2021, published 2025).

What was measured:
[1] = In vitro stability of 18F-cinacalcet (incubation, HPLC purity); assay type: physicochemical
Method: (§1) In a non-human primate imaging experiment, the blood samples were drawn from vein at 1 and 3 h post injection.
(§2) Stability of [^18F]F-ZW-cinacalcet. The photoredox labeling method allows access to a new category of PET agent bearing a SP^2-F bond. [^18F]F-ZW-cinacalcet has improved stability compared to the CF3 labeling method. The formulated [^18F]F-ZW-cinacalcet was first incubated in PBS (Phosphate buffered saline containing 8% EtOH), and aliquots were taken for analysis at different time points. […] Subsequently, the in vivo stability of [^18F]F-ZW-cinacalcet was tested in a non-human primate. After injection, a blood sample was collected at 1 and 3 h time points. […] Because the imaging was finished within the first hour, the metabolites were not determined in this study

[2] = In vivo stability in non-human primate blood samples; conditions: for In vivo stability in blood: non-human primate
Method: as §1, §2

[3] = Octanol water partition coefficient (Log P); assay type: physicochemical; conditions: 1-octanol/water; 1-octanol and water system, average value
Description: Determination of Octanol water Partition Coefficient (Log P).

CSR [4] = molecular target: T1, CSR (Rattus norvegicus, UniProt P48442); experiment: Small animal PET/CT imaging of parathyroid in rats (static and dynamic); assay type: in vivo
T1 construct: Normal rats were used as an animal model for initial CSR agent imaging; from tissue; host or cells: rat parathyroid (also lung and other tissues), in vivo and excised sections
T1 sequence (P48442 20-1079): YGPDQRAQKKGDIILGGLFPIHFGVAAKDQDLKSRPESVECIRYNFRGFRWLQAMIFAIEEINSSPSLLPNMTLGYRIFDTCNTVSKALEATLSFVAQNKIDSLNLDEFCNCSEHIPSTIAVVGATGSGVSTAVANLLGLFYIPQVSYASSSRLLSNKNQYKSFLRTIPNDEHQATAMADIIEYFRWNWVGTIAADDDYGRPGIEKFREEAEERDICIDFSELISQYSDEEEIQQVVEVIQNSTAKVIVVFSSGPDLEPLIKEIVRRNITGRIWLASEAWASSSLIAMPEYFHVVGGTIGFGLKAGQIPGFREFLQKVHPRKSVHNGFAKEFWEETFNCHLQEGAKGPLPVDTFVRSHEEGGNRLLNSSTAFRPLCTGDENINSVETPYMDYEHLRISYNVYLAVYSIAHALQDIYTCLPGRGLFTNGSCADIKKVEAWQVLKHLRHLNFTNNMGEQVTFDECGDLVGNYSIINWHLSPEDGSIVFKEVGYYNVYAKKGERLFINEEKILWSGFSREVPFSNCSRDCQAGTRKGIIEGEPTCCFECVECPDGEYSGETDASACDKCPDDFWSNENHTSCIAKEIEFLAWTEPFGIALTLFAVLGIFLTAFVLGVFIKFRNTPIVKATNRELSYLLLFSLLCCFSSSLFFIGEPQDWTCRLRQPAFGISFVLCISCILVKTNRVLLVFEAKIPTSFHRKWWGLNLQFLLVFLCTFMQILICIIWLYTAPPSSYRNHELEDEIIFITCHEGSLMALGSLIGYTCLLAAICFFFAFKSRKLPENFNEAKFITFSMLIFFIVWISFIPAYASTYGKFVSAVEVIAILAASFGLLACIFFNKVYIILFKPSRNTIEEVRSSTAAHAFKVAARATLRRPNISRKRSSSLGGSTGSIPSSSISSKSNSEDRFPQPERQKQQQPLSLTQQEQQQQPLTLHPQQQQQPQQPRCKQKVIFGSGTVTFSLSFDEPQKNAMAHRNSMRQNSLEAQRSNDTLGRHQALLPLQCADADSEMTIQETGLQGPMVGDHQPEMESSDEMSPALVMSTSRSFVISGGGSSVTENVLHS
Method: Normal rats were used as an animal model for initial CSR agent imaging. Surgical dissection of the mouse parathyroid gland is too technically difficult, in contrast to the rat which has approximately 10 times the body mass of a mouse. Analyses were performed by individuals with extensive experience on parathyroid identification for pathology. autoradiography, and microscope study. In brief, animals were anesthetized with isoflurane. For PET probes, dynamic PET imaging was performed after the administration of 1 to 2 mCi of tracer, and animals were imaged with 2 h dynamic scan. A CT scan was also obtained for anatomic registration and attenuation correction. Images were reconstructed to create representative dynamic images for the study (10 min epochs). These images were qualitatively graded to assess the visibility of the parathyroid gland against background tissues. PET kinetic modeling was also performed to evaluate the relative kinetics of uptake of the parathyroid gland compared to the thyroid and other tissues.
^18F-cinacalcet could detect parathyroid gland in rats by targeting CSR. Parathyroid gland are very small (3-5 mm in human) and generally below the detection limit of most imaging methods. The novel CSR PET agent ^18F-cinacalcet was injected in rat and small animal PET imaging was performed. […] In order to confirm the observed signal did come from the very small parathyroid gland instead of thyroid or other tissue, the rats were sacrificed and the localization of radioactivity in the gland tissue was evaluated by autoradiography coupled with pathology staining of neighboring slides.
Small animal-PET CT imaging of parathyroid in rodents. Because the parathyroid is rather small, rats were used instead of mice to evaluate the agent. Static PET scans were acquired in rats at 0.5 h, 1 h and 2 h post injection of [^18F]F-ZW-cinacalcet. Representative coronal PET images are shown in FIG. 15 panel A. Parathyroid could be visualized on the image at the early time point of 0.5 h with a radiotracer uptake of 0.28±0.16% ID/g and parathyroid/muscle ratio of 4.9±0.93.
Dynamic PET images of [^18F]F-ZW-cinacalcet in rats were acquired for 60 minutes. [^18F]F-ZW-cinacalcet accumulated into parathyroid at the earliest timepoints and peaked at about 7 min post injection (0.33±0.05% ID/g), followed by a gradual decline to 0.17±0.01% ID/g at 60 min post injection.
Uptake peaked at 2 min post injection (lung: 1.00±0.19% ID/g; heart: 0.95±0.14% ID/g), with similar kinetics until 10 min post injection. Then, the heart uptake dropped rapidly to 0.15±0.27% ID/g at 60 min post injection, whereas the lung uptake remained at a high level at 60 min post injection of 0.41±0.07% ID/g. In addition, the radiotracer was also observed entering into the brain with a stable uptake level of ˜0.2% ID/g.

CSR [5] = molecular target: T1, CSR; experiment: Autoradiography with matched CSR IHC staining of excised rat tissue; assay type: in vivo; conditions: rats
Method: After the imaging of each animal, the parathyroid glands were carefully dissected out and the uptake in parathyroid gland was measured, then subsequently evaluated pathologically to confirm the histology. Autoradiography was performed to study its distribution in gland area. Optical imaging guidance during the surgical procedures was also performed using the developed CSR PET-fluorescence probes. During excision, the surgeon also graded the visibility of the lesions with and without the use of fluorescence. Other critical organs, including the thyroid gland, nearby tissues, and major organs were also dissected out to evaluate the relative uptake within these organs. The localization of radioactivity in the gland tissue was also confirmed by autoradiography coupled with pathology staining of neighboring slides.
^18F-cinacalcet could detect parathyroid gland in rats by targeting CSR. […] In order to confirm the observed signal did come from the very small parathyroid gland instead of thyroid or other tissue, the rats were sacrificed and the localization of radioactivity in the gland tissue was evaluated by autoradiography coupled with pathology staining of neighboring slides.
Autoradiography and pathology. […] Quantitative analysis of autoradiography and IHC staining was expressed as a mean integrated density (Mean IntDen). […]

[6] = dynamic PET, 2 min post injection
[7] = dynamic PET, 60 min post injection
[8] = static PET, 0.5 h post injection

Structure (SMILES): C[C@@H](NCCCc1cccc(C(F)(F)F)c1)c1ccc([18F])c2ccccc12 [[^18F]F-ZW-cinacalcet]
- In vitro stability, purity ([1]; 6 h time point): > 90%
- Stability in PBS, purity ([1]; PBS containing 8% EtOH, 4 h post incubation): > 95%
- Blood metabolic stability ([2]; Rhesus Macaque, overall judgement): acceptable stability for imaging applications
- In vivo stability in blood ([2]; 1 h post injection): majority of the agent remained untouched
- In vivo stability in blood ([2]; 1 h post injection, listed as 18F-cinacalcet): rather stable
- In vivo stability in blood ([2]; 3 h post injection): hydrophilic metabolite was observed
- In vivo stability in blood ([2]; 3 h post injection, listed as 18F-cinacalcet): significant metabolites are observed
- logP [3]: 1.95 ± 0.02
- Brain uptake, stable level (CSR [4]; dynamic PET): ~0.2 % ID/g
- Heart uptake at peak (CSR [4]; [6]): 0.95±0.14 % ID/g
- Lung uptake at peak (CSR [4]; [6]): 1.00±0.19 % ID/g
- Muscle uptake (CSR [4]; dynamic PET, 20 min post injection): < 0.06 % ID/g
- Heart uptake (CSR [4]; [7]): 0.15±0.27 % ID/g
- Lung uptake (CSR [4]; [7]): 0.41±0.07 % ID/g
- Parathyroid uptake (CSR [4]; [7]): 0.17±0.01 % ID/g
- Parathyroid uptake at peak (CSR [4]; dynamic PET, about 7 min post injection): 0.33±0.05 % ID/g
- Time of peak lung and heart uptake (CSR [4]; dynamic PET, post injection): 2 min
- Time of peak parathyroid uptake (CSR [4]; dynamic PET, post injection): about 7 min
- PET signal in neck area (CSR [4]; small animal PET): clearly demonstrated two hot spots
- Parathyroid radiotracer uptake (CSR [4]; [8]): 0.28±0.16 % ID/g
- Parathyroid/muscle ratio (CSR [4]; [8]): 4.9±0.93
- Parathyroid radioactivity (CSR [4]; static PET, 2 h time point): reverted to the background level
- Parathyroid/thyroid ratio in autoradiography (Mean IntDen) (CSR [5]; excised tissue sections): 6.60±1.28
- Localization of radioactivity by autoradiography and pathology staining (CSR [5]; neighboring slides): correlated well with parathyroid gland
